“Also recorded” adds a separate entry of the source.
Legend:
PGE2 = test: inhibition of PGE2 production by 5-ASA; format: cell-based; conditions: 5-ASA concentration 1 mM; read-out: production of PGE2 inhibited
Experimental: (§1) Prostaglandin E2 level analysis. To analyze the levels of prostaglandin E2 (PGE2) production in different cell lines, the cell culture mediums were collected after overnight incubation. To test PGE2 in the tumor tissues, the harvested tumors were homogenized, and the supernatants were obtained after centrifugation. PGE2 in the supernatants was detected using Abcam Prostaglandin E2 ELISA Kit.

[1] = system: 4T1.2, CT26, MDA-MB-468 and HCT116 tumor cell lines; test: MTT cytotoxicity of free 5-ASA, DOX and combination, 48 h; format: cell-based, murine, human; conditions: 5-ASA 0~1 mM, all four cell lines
Experimental: In vitro cytotoxicity. […] Cells were seeded in 96-well plates at a density of 5×10^3 cells/well with 100 μL of complete culture medium (DMEM or RPMI 1640 with 10% FBS and 1% streptomycin/penicillin). […] The absorbances of each well were measured at 590 nm and the cell viability was determined via the following formula: (ODtreated−ODblank)/(ODcontrol−ODblank)×100%.

[2] = system: PGE2 in CT26 tumor tissue; test: PGE2 level in tumor tissue, ELISA; set-up: species or system BALB/c mice; conditions: mouse, in vivo
Experimental: as §1

endometrial cancer cells = conditions: cited from earlier work
[3] = system: esophageal squamous cell carcinoma; conditions: cited from earlier work
[4] = in vitro DOX release by dialysis; format: physicochemical; conditions: free drug control
Experimental: In vitro drug release. The release of DOX from DOX-loaded PASA and FASA micelles at different pH was studied using a dialysis method. Briefly, 2 mL of PASA/DOX and FASA/DOX micelles containing 1 mg of DOX and 10 mg of polymer were placed in a dialysis bag (MWCO 3.5 kDa) and immersed into 40 mL of 0.1 M PBS solution containing 0.5% (w/v) Tween 80 at pH 5 and pH 7.4. The experiment was performed in an incubation shaker at 37° C. at 100 rpm. At selected time intervals, 10 μL solution in the dialysis bag and 1 mL medium outside the dialysis bag were withdrawn while same amount of fresh dialysis solution was added for replenishment. The concentration of DOX was examined by fluorescence spectrometry (excitation, 480 nm; emission, 510 to 620 nm). Free DOX was included as control.

4T1.2 tumor [5] = test: in vivo therapeutic study, syngeneic breast cancer model; set-up: species or system BALB/c mice; conditions: 4T1.2 model, treatments on day 0, 3, 6, i.v.
Excerpt: In vivo therapeutic study. […] Female BALB/c mice (4-6 weeks) were s.c. inoculated with 4T1.2 or CT26 cells (5×10^5 cells per mouse). […] Tumor sizes were monitored every three days following the initiation of the treatment and calculated by the formula: (Length×Width^2)/2. Body weights were also followed as an indication of toxicity. After completion of the experiment, tumor and major organs were collected for hematoxylin and eosin (H&E) staining. Blood samples were collected for biochemical analysis of alanine transaminase (ALT) and aspartate aminotransferase (AST).

[6] = toxicity evaluation (body weight, AST/ALT, histology); format: in vivo, mice
Experimental: In vivo therapeutic study. In vivo antitumor efficacy of DOX-loaded PASA and FASA micelles was tested in syngeneic 4T1.2 mouse breast cancer model and CT26 mouse colon cancer model, respectively. Female BALB/c mice (4-6 weeks) were s.c. inoculated with 4T1.2 or CT26 cells (5×10^5 cells per mouse). When the tumor volume reached ~50 mm^3, mice were randomly divided into eight groups (n=5), and treated via tail vein injection with PBS, DOX, 5-ASA+DOX, Doxil, blank PASA micelles, blank FASA micelles, DOX-loaded PASA micelles or DOX-loaded FASA micelles, respectively once every three days for three times (polymer: 50 mg/kg, DOX: 5 mg/kg, 5-ASA: 20 mg/kg). Tumor sizes were monitored every three days following the initiation of the treatment and calculated by the formula: (Length×Width^2)/2. Body weights were also followed as an indication of toxicity. After completion of the experiment, tumor and major organs were collected for hematoxylin and eosin (H&E) staining. Blood samples were collected for biochemical analysis of alanine transaminase (ALT) and aspartate aminotransferase (AST).
Histopathological Analysis. Tumors and major organs including heart, liver, spleen, lung and kidney were excised and fixed in PBS containing 10% formaldehyde after completion of the in vivo therapy study, followed by embedment in paraffin. The paraffin embedded samples were sectioned into slices at 4 μm using an HM 325 Rotary Microtome. The tissue slices were then subjected to H&E staining for histopathological examination under a Zeiss Axiostar plus Microscope (PA, USA).
ALT and AST assessment. Mouse serum was obtained for blood biochemical assessment. ALT and AST were measured by ALT/SGPT or […] liqui-UV assay kit following manufacturer's protocols.

KB cells [7] = test: cellular uptake, fluorescence microscopy and flow cytometry; format: cell-based, human
Experimental: Cellular uptake study. KB, 4T1.2, CT26, MDA-MB-468, HCT116 tumor cells and M2 macrophages were seeded to 6-well plates (3×10^5/well), respectively. After overnight incubation, the culture medium was replaced by fresh medium containing free DOX, PASA/DOX and FASA/DOX micelles with or without 100 μM free folate, respectively, at an equivalent DOX concentration of 6 μg/mL (carrier/DOX ratio: 10/1 (w/w)). After incubation for 30 min at 37° C., cells were washed with cold PBS and fixed with PBS containing 4% (w/v) formaldehyde. Nuclei were then stained by DAPI for 5 min. Cells were washed with cold PBS and observed under fluorescence microscope (BZ-X710, Japan).
Cellular uptake of different DOX formulations was also quantified by flow cytometry. KB tumor cells seeded in 6-well plates (3×10^5/well) were treated with various DOX formulations as described above at a DOX concentration of 6 μg/mL. Following incubation at 37° C. for 30 min, cells were washed with cold PBS, fixed in PBS containing 4% (w/v) formaldehyde, and resuspended in 500 μL PBS for flow cytometry analysis with CyAn ADP Analyzer (Beckman Coulter, Inc.). Fluorescence was examined at an excitation wavelength of 480 nm and an emission wavelength of 570 nm. 2×10^4 events were collected for each sample.

KB cells [8] = test: MTT cytotoxicity of DOX formulations, 30 min treatment then 48 h; format: cell-based, human; conditions: FASA up to 200 μg/mL
Experimental: In vitro cytotoxicity. Cytotoxicity assay was performed on different cancer cell lines (KB, 4T1.2, CT26, MDA-MB-468 and HCT116). Cells were seeded in 96-well plates at a density of 5×10^3 cells/well with 100 μL of complete culture medium (DMEM or RPMI 1640 with 10% FBS and 1% streptomycin/penicillin).
The cytotoxicity of PASA/DOX and FASA/DOX at a carrier/DOX ratio of 10/1 (w/w) were compared to free DOX and Doxil at various DOX concentrations. FASA control was added to cells at concentrations equivalent to the amounts of carrier in the corresponding DOX formulations. In order to confirm folate-mediated active targeting, free folate (100 μM) was added along with the FASA/DOX micelles. Cells were incubated for 30 min in drug-containing medium and then cultured for another 48 h in fresh medium prior to MTT assay.

4T1.2 tumor [9] = system: 4T1.2 tumor; set-up: species or system mice; conditions: mouse, in vivo, iv
Experimental: Tissue biodistribution. […] The mice were sacrificed and perfused at 24 h post injection. Tumors and major organs including heart, liver, spleen, lung and kidney were sectioned and observed under the fluorescence microscope (BZ-X710, Japan).

## Nc1ccc(O)c(C(=O)O)c1 [5-ASA, 5-aminosalicylic acid]
PGE2
  inhibition at 1000 µM: 80%
[1]
  anti-proliferation effect / cytotoxicity: did not show any significant anti-proliferation effect; also recorded: minimal cytotoxicity
[2]
  level of PGE2 in CT26 tumor tissue: minimal effect

## CCc1cccc2c3c([nH]c12)C(CC)(CC(=O)O)OCC3 (centres unmarked) [Etodolac]
Endometrial cancer cells
  inhibition of cancer cells: dose dependent inhibition of endometrial cancer cells

## Cc1ccc(-c2cc(C(F)(F)F)nn2-c2ccc(S(N)(=O)=O)cc2)cc1 [Celecoxib]
[3]
  effect on 5-FU antitumor effects: enhances 5-Fluorouracil (5-FU) antitumor effects

## COc1cccc2c1C(=O)c1c(O)c3c(c(O)c1C2=O)C[C@@](O)(C(=O)CO)C[C@@H]3O[C@H]1C[C@H](N)[C@H](O)[C@H](C)O1 [DOX, doxorubicin]
[4]
  diffusion across the dialysis membrane: rapidly diffused across the dialysis membrane
4T1.2 tumor [5]
  antitumor activity (tumor growth): modest antitumor activity
[6]; mouse, in vivo
  body weights: slight decrease in body weights on day 9
  liver histology: hepatocellular vacuolation was found
[6]; versus control group
  serum levels of AST / ALT: significantly higher than those in the control group
KB cells [7]; 30 min, DOX 6 μg/mL
  cellular uptake: efficiently taken up
KB cells [7]; excess free folate 100 μM
  effect of free folate on cellular uptake: no effect
KB cells [8]
  cytotoxicity (inhibition of cell proliferation): inhibited the cell proliferation in a dose-dependent manner
4T1.2 tumor [9]
  DOX fluorescence signals in tumor tissues: low level and scattered DOX fluorescence signals

Reference: patent US12678448B2, “Polymeric carriers for delivery of therapeutic agents” (priority 2020, dated 2026)
